Tests used:
[1] = test system: mononuclear cells from normal bone marrow; type: cell-based, human
OCI-AML3 cells = experiment: Cell death assay; type: cell-based, human; conditions: OCI-AML3, overnight at 37 °C, 40 μM or higher, AnnexinV-FITC/PI flow cytometry
human leukemia cells = experiment: Leukemia cell morphology after overnight incubation; type: cell-based; conditions: overnight incubation (Fig. 4C)

- effects on mononuclear cells from normal bone marrow [1]: no detectable effects
Substance: CGRRAGGSC-GG-D(KLAKLAK)2 (disulfide) [BMTP-11]
- cell death (fraction of cells) (OCI-AML3 cells): ~ 90%
- effect on leukemia cell morphology (human leukemia cells): affected the morphology
